Values of other authors, collected in paper PMC12385607 (ACS medicinal chemistry letters, 2025).

Tests used:
[1] = 30 min post-oral administration
[2] = orally available 2-PMPA prodrugs

SMILES | Clearance from plasma after intravenous administration (in words) | Plasma concentration of 2-PMPA after oral administration of 2-PMPA itself [1] | Brain distribution of 2-PMPA (in words) [2]
O=C(O)CCC(CP(=O)(O)O)C(=O)O (stereo not drawn) [2-PMPA, 2-(phosphonomethyl)pentanedioic acid] | quickly cleared from the plasma | ~ 250 nM | 
Cc1oc(=O)oc1COC(=O)CCC(CP(=O)(OCc1oc(=O)oc1C)OCc1oc(=O)oc1C)C(=O)OCc1oc(=O)oc1C (stereo not drawn) [tetra-ODOL-2-PMPA] |  |  | limited brain distribution
